Each structure is given as a SMILES string. pIC50: −log10 of the molar value.

This note sets out measurements from patent US5268386A, “Certain 3,4-dihydro 4-oxospiro [2H-1 benzopyrans] useful for treating hyperuricemia” (Shionogi & Co., Ltd., priority 1989, dated 1993).

T1 sequence (P80457 whole entry): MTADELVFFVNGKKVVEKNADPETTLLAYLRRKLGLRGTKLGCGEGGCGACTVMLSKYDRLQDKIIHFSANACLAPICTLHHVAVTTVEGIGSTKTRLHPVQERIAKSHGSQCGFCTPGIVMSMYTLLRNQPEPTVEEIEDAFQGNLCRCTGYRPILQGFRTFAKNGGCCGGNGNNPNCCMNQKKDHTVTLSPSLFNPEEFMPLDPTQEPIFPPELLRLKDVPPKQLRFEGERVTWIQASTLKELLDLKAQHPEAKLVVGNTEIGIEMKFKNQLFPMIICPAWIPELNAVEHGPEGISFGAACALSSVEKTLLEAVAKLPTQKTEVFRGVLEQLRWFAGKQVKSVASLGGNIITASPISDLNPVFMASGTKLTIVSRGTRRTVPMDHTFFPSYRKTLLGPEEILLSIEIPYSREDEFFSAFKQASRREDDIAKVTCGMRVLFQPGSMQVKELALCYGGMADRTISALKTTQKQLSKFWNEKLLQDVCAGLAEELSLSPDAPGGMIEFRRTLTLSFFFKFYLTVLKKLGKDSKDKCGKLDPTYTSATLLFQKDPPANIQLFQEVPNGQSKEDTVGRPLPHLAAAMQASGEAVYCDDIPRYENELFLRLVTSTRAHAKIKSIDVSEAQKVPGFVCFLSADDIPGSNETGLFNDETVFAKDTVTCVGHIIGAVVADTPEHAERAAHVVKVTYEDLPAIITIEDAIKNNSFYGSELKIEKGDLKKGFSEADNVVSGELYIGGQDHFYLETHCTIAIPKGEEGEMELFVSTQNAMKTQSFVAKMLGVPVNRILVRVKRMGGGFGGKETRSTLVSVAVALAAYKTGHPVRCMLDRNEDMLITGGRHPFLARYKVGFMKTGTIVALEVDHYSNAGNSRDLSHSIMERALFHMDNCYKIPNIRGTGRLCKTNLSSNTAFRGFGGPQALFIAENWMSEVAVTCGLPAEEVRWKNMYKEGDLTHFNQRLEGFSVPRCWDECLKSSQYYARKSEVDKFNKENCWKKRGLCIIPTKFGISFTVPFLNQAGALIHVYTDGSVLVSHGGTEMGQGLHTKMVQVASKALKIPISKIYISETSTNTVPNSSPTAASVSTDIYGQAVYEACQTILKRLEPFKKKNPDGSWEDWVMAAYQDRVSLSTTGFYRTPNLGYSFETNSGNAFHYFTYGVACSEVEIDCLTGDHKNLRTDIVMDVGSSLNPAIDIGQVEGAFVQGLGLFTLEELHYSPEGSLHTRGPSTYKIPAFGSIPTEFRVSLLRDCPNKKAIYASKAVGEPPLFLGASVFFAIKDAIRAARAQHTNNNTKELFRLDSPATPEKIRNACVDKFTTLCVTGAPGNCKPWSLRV

The first assay relates to uric acid clearance. The assay is described as follows: Accelerated uric acid clearance in rats caused by administration of compound (I). Format: in vivo. As to conditions: dose 10 mg/kg intraperitoneal; male rats; mean of four measurements minus control value. From the text:
Accelerated uric acid clearance in rats caused by administration of compound (I).
Nine-week-old male rats were employed for the test. As a pre-treatment for measuring uric acid clearance and inulin clearance, each animal was anesthetized with pentobarbital sodium, and canulae were placed into the right femoral artery (for blood collection), left femoral vein (for drug infusion), and urinary bladder (for urine collection) of each animal. 60% Urethane was subcutaneously administered to each animal at a dose of 2 ml/kg body weight and then 1.7% potassium oxonate/1.5% inulin/4% mannitol/0.9% saline solution was intravenously administered. After that, 0.5% pottasium oxonate/4% mannitol/1.5% inulin/0.9% saline was infused to each animal at a flow rate of 0.05 ml per minute on a hot plate kept at 30° C. Thirty minutes later, 0.9% saline was intraperitonealy administered at 4 ml/kg body weight. After the equilibrium for another 30 minutes, arterial blood (0.2 ml each) samples were collected 6 times at every 20 minute interval and five 20-minute urine samples were collected. Immediately after the collection of every blood sample, the serum was separated therefrom, and the serum samples and the urine samples were stored in a refrigerator.
Immediately after the first collection of the urine sample, the test compound suspended in 1% gum arabic was intraperitoneally administered at 2 ml/kg body weight.
Uric acid both in the serum and in the urine was quantitatively analyzed by the method of Yonetani et al's. [Yonetani, Y.; Ishii, M.; Iwaki, K., Japanese J. Pharmacology 30, 829-840 (1980).] Inulin was also done substantially by the method of Vurek's and Pegram's [Vurek, G G., Pegram, S.E., Anal.Biochem., 16, 409-419 (1966}]. In order to analyze uric acid, 0.2 ml of diluted solution of deproteinized serum or urine was admixed with 2.5 ml of 0.4% dimedon/orthphosphoric acid solution and the resulting mixture was heated in a hot bath for 5 minutes. The mixture was then cooled in ice-cold water and the fluorescence was measured at 400 nm in the excitation wave length at 360 nm. Control experiments were carried out using an equivalent amount of positive control compounds, ([5-chloro-3-(2-methylphenyl)-4-oxo-4H-1-benzopyran-7-yl] oxy)acetic acid and benzbromarone.
a) Increment of urinary uric acid was calculated by subtracting the control value from the mean value of four measurements after the administration of test compound.
b) Increment of fractional excretion of uric acid [Uric acid clearance/inulin clearance (i.e., glomerular filtration rate)] was calculated by subtracting the control value from the mean value of four measurements after the administration of test compound.
Consider `O=C(O)COc1cc(Cl)c2c(c1Cl)OC1(CCCCC1)CC2=O` [Example 11], for which the “ΔUuaV (increment of urinary uric acid)” value is 0.022 mg/kg-min.
In the case of `COc1cc(OCC(=O)O)cc2c1C(=O)CC1(CCCCC1)O2` [Example 21, {(5-Methoxy-3,4-dihydro-4-oxospiro[2H-1-benzopyran-2,1'-cyclohexan]-7-yl)oxy}acetic acid], the “ΔUuaV (increment of urinary uric acid)” value is on record as 0.046 mg/kg-min.
With `CCOc1cc(OCC(=O)O)cc2c1C(=O)CC1(CCCCC1)O2` [Example 22], the “ΔUuaV (increment of urinary uric acid)” value is reported as 0.029 mg/kg-min.
Regarding `O=C(O)COc1cc(OCc2ccccc2)c2c(c1)OC1(CCCCC1)CC2=O` [Example 23], the “ΔUuaV (increment of urinary uric acid)” value is given as 0.051 mg/kg-min.
Still for that read-out and setting: the result for `CC(C)Oc1cc(OCC(=O)O)cc2c1C(=O)CC1(CCCCC1)O2` [Example 24] reads 0.024 mg/kg-min.
On to `C=CCOc1cc(OCC(=O)O)cc2c1C(=O)CC1(CCCCC1)O2` [Example 25], for which the “ΔUuaV (increment of urinary uric acid)” value is on record as 0.043 mg/kg-min.
Same read-out and setting: the result for `COc1cc(OCC(=O)O)cc2c1C(=O)C(C)C1(CCCCC1)O2` (stereo not shown) [Example 30] reads 0.036 mg/kg-min; that for `COc1c(OCC(=O)O)ccc2c1OC1(CCCCC1)CC2=O` [Example 34], 0.040 mg/kg-min.
Consider `O=C(O)COc1cc(O)c2c(c1)SC1(CCCCC1)CC2=O` [Example 49, 2-{(5-Hydroxy-3,4-dihydro-4-oxospiro[2H-1-benzothiine-2,1'-cyclohexan]-7-yl)oxy}acetic acid], for which the “ΔUuaV (increment of urinary uric acid)” value amounted to 0.082 mg/kg-min.
Consider `COc1cc(OCC(=O)O)cc2c1C1(CC3(CCCCC3)O2)SCCS1` [Example 54, {(5-Methoxy-3,4-dihydrodispiro[2H-1-benzopyran-2,1'-cyclohexan-4,2"-[1,3]dithiolan]-7-yl)oxy}acetic acid], for which the “ΔUuaV (increment of urinary uric acid)” value was 0.039 mg/kg-min.

The same assay, now with this note: dose 25 mg/kg intraperitoneal; male rats; mean of four measurements minus control value.
With `COc1cc(OCC(=O)OCn2ncc3c(=O)[nH]cnc32)cc2c1C(=O)CC1(CCCCC1)O2` [Example 61], the “ΔUuaV (increment of urinary uric acid)” value is on record as -0.006 mg/kg-min.

The same assay, now with this note: dose 50 mg/kg intraperitoneal; male rats; mean of four measurements minus control value.
Regarding `COc1cc(OCC(=O)O)cc2c1C(=O)CC(C)(C)O2` [Example 33], the “ΔUuaV (increment of urinary uric acid)” value is reported as 0.047 mg/kg-min.

Another assay has as its target T1, xanthine oxidase (milk xanthine oxidase) (Bos taurus, UniProt P80457).
T1 construct: purchased Boelinger Manheim; host or cells: milk
The assay is described as follows: Evaluation of xanthine oxidase inhibition activity. In kind it is biochemical. As to conditions: phosphate buffer pH=8, absorbance at 293 nm, 10 minutes, read-out: IC50 (50% inhibition rate).
Method: A mixture of 0.05M phosphate buffer (pH=8, 2 ml), 5.0×10^-4 M xanthine solution (0.5 ml), and an aqueous solution of a test compound (0.3 ml) was charged in a cell for the spectrophotometer. An aqueous solution of xanthine oxidase (200 times dilution, Boelinger Manheim, milk xanthine oxidase) (0.2 ml) was added to the mixture. The absorbance at 293 nm was measured before, and 10 minutes after, the addition of xanthine. The increase in the two measurements is attributable to the amount of synthesized uric acid. Control experiment was carried out using water instead of the test compound solution.
Regarding `COc1cc(OCC(=O)O)cc2c1C(=O)CC1(CCCCC1)O2` [Example 21, {(5-Methoxy-3,4-dihydro-4-oxospiro[2H-1-benzopyran-2,1'-cyclohexan]-7-yl)oxy}acetic acid], the pIC50 was 4.19.
